Bounds are passed on as bounds.

For this assay, the target named is T1, human recombinant LPA2 expressed in CHO cells (Homo sapiens, UniProt Q9HBW0).
T1 construct: expressed in transfected cells; host or cells: CHO cells (CHO-hLPA2 cell line)
The assay is described as follows: FLIPR calcium mobilization assay, LPA2 antagonism in CHO-hLPA2 cells. The following applies: CHO-hLPA2 cells, inhibition of LPA EC80 Ca2+ response, 30 min pre-incubation; read-out: LPA2 IC50. Type of assay: cell-based. The protocol: The effectiveness of compounds of the present invention as LPA2 antagonist can be determined at the human recombinant LPA2 expressed in CHO cells, using a FLIPR assay in 384 well format.
CHO-hLPA2 cell lines are cultured in a humidified incubator at 5% C02 in DMEM/F-12 (1:1) MIXTURE with 2 mM Glutamax, supplemented with 10% of Foetal Bovine Serum, 1 mM Sodium Pyruvate, 11 mM Hepes and 1× Penicillin/Streptomycin. CHO hLPA2 cells are seeded into black walled clear-bottom 384-well plates (#781091, Greiner Bio-One GmbH) at a density of 7,500 cells per well in 50 μl culture media and grown overnight in a 37° C. humidified CO2-incubator. Serial dilutions (1:3 or 1:4, 11 points CRC) of compounds are performed in 100% DMSO at 200× the final concentration. The compounds are diluted 1:50 prior to the experiment with Assay Buffer (20 mM HEPES, 145 mM NaCl, 5 mM KCl, 5.5 mM glucose, 1 mM MgCl2 and 2 mM CaCl2, pH 7.4 containing 0.01% Pluronic F-127) to obtain a solution corresponding to […] the final concentration in the assay (4×, 2% DMSO). The final concentration of DMSO in the assay will be 0.5% in each well. Medium is removed by aspiration and cells are then incubated with 30 μl of a loading solution containing 5 μM of the cytoplasmic Ca2+ indicator Cal-520 AM in Assay Buffer containing 2.5 mM probenecid for 30 min at 37° C. incubator (cell loading). The loaded cell plates are transferred into the FLIPR instrument and calcium responses are monitored during the on-line addition protocols. For testing of compounds, after the cell loading, 10 μl/well of 4× antagonists' solution was added onto the cells. After 30 min pre-incubation (at 37° C.), 10 μl/well of 5× concentrated LPA EC80 was added and Ca2+ mobilization responses was followed during the on-line addition protocol. Intracellular peak fluorescence values subtracted by baseline fluorescence are exported and analysed to determine IC50 values, respectively. The calcium response is expressed as percentage of the maximal inhibition of the EC80 agonist response.
The raw data (peak height expressed as relative fluorescence units) are normalized and transformed into “percent of inhibition”. Curve fitting and pIC50 (−LogIC50) estimations are carried out using a four-parameter logistic model using XLfit Software.
Background: Calcium flux is commonly read through the fluorescence of an indicator in the cells.

T1 sequence (Q9HBW0 whole entry): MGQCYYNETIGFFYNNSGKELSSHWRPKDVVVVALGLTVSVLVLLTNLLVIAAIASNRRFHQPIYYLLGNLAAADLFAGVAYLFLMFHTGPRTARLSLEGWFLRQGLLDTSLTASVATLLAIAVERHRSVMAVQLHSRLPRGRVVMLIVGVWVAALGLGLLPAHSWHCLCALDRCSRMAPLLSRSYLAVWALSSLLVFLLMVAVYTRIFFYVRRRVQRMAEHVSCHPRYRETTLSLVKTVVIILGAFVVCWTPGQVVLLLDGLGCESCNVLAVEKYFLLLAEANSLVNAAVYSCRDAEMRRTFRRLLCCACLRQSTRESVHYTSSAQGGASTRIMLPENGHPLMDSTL

A word on the IC50: it is the concentration that gives 50% inhibition. Take `COC(=O)Nc1nc(C)c(S(=O)(=O)N2CCN(C[C@H](C)Nc3ncnc4c(-c5sc(C)nc5C)cccc34)CC2)s1` [Example 1, methyl N-[5-({4-[(2S)-2-{[8-(2,4-dimethyl-1,3-thiazol-5-yl)quinazolin-4-yl]amino}propyl]piperazin-1-yl}sulfonyl)-4-methyl-1,3-thiazol-2-yl]carbamate]: the IC50 is below 10 nM.

As to `COC(=O)Nc1nc(C)c(S(=O)(=O)N2CCN(C[C@H](C)Nc3ncnc4c(-c5cnc(C)cn5)cccc34)CC2)s1` [Example 2, methyl N-[4-methyl-5-({4-[(2S)-2-{[8-(5-methylpyrazin-2-yl)quinazolin-4-yl]amino}propyl]piperazin-1-yl}sulfonyl)-1,3-thiazol-2-yl]carbamate], the IC50 was 10 to 100 nM.

With `Cc1cc(-c2ccc(S(=O)(=O)N3CCN(C[C@H](C)Nc4ncnc5c(-c6c(C)noc6C)cccc45)CC3)s2)on1` [Example 3, 8-(3,5-dimethyl-1,2-oxazol-4-yl)-N-[(2S)-1-(4-{[5-(3-methyl-1,2-oxazol-5-yl)thiophen-2-yl]sulfonyl}piperazin-1-yl)propan-2-yl]quinazolin-4-amine], the IC50 is below 10 nM.

For the molecule `Cc1cc(-c2ccc(S(=O)(=O)N3CCN(C[C@H](C)Nc4ncnc5c(-c6ccccc6)cccc45)CC3)s2)on1` [Example 4, N-[(2S)-1-(4-{[5-(3-methyl-1,2-oxazol-5-yl)thiophen-2-yl]sulfonyl}piperazin-1-yl)propan-2-yl]-8-phenylquinazolin-4-amine], the IC50 is below 10 nM.

`Cc1cc(-c2ccc(S(=O)(=O)N3CCN(C[C@H](C)Nc4ncnc5c(-c6c(C)nn(C)c6C)cccc45)CC3)s2)on1` [Example 5, N-[(2S)-1-(4-{[5-(3-methyl-1,2-oxazol-5-yl)thiophen-2-yl]sulfonyl}piperazin-1-yl)propan-2-yl]-8-(1,3,5-trimethyl-1H-pyrazol-4-yl)quinazolin-4-amine]: the concentration for half-maximal inhibition (IC50) is below 10 nM.

In the case of `Cc1cc(-c2ccc(S(=O)(=O)N3CCN(C[C@H](C)Nc4ncnc5c(-c6cccnc6)cccc45)CC3)s2)on1` [Example 6, N-[(2S)-1-(4-{[5-(3-methyl-1,2-oxazol-5-yl)thiophen-2-yl]sulfonyl}piperazin-1-yl)propan-2-yl]-8-(pyridin-3-yl)quinazolin-4-amine], the half-maximal inhibitory concentration (IC50) was below 10 nM.

With `Cc1cc(-c2ccc(S(=O)(=O)N3CCN(C[C@H](C)Nc4ncnc5c(-c6sc(C)nc6C)cccc45)CC3)s2)on1` [Example 7, 8-(2,4-dimethyl-1,3-thiazol-5-yl)-N-[(2S)-1-(4-{[5-(3-methyl-1,2-oxazol-5-yl)thiophen-2-yl]sulfonyl}piperazin-1-yl)propan-2-yl]quinazolin-4-amine], the half-inhibitory concentration (IC50) is below 10 nM.

Turning to `Cc1cc(-c2ccc(S(=O)(=O)N3CCN(C[C@H](C)Nc4ncnc5c(-c6ccncc6)cccc45)CC3)s2)on1` [Example 8, N-[(2S)-1-(4-{[5-(3-methyl-1,2-oxazol-5-yl)thiophen-2-yl]sulfonyl}piperazin-1-yl)propan-2-yl]-8-(pyridin-4-yl)quinazolin-4-amine], the half-maximal inhibitory concentration (IC50) was below 10 nM.

As to `Cc1noc(-c2ccc(S(=O)(=O)N3CCN(C[C@H](C)Nc4ncnc5c(-c6c(C)noc6C)cccc45)CC3)s2)c1C` [Example 9, 8-(3,5-dimethyl-1,2-oxazol-4-yl)-N-[(2S)-1-(4-{[5-(3,4-dimethyl-1,2-oxazol-5-yl)thiophen-2-yl]sulfonyl}piperazin-1-yl)propan-2-yl]quinazolin-4-amine], the 50% inhibitory concentration (IC50) is below 10 nM.

Take `COC(=O)Nc1nc(C)c(S(=O)(=O)N2CCN(C[C@H](C)Nc3ncnc4c(-c5c(C)noc5C)cccc34)CC2)s1` [Example 10, methyl N-[5-({4-[(2S)-2-{[8-(3,5-dimethyl-1,2-oxazol-4-yl)quinazolin-4-yl]amino}propyl]piperazin-1-yl}sulfonyl)-4-methyl-1,3-thiazol-2-yl]carbamate]: the IC50 is below 10 nM.

As for `Cc1cc(-c2ccc(S(=O)(=O)N3CCN(C[C@H](C)Nc4ncnc5c(-c6cncnc6)cccc45)CC3)s2)on1` [Example 11, N-[(2S)-1-(4-{[5-(3-methyl-1,2-oxazol-5-yl)thiophen-2-yl]sulfonyl}piperazin-1-yl)propan-2-yl]-8-(pyrimidin-5-yl)quinazolin-4-amine], the IC50 was below 10 nM.

For the molecule `Cc1cc(-c2ccc(S(=O)(=O)N3CCN(C[C@H](C)Nc4ncnc5c(-c6ccccn6)cccc45)CC3)s2)on1` [Example 12, N-[(2S)-1-(4-{[5-(3-methyl-1,2-oxazol-5-yl)thiophen-2-yl]sulfonyl}piperazin-1-yl)propan-2-yl]-8-(pyridin-2-yl)quinazolin-4-amine], the IC50 is below 10 nM.

Consider `Cc1cc(-c2ccc(S(=O)(=O)N3CCN(C[C@H](C)Nc4ncnc5c(-c6cn(C)nc6C(F)(F)F)cccc45)CC3)s2)on1` [Example 14, N-[(2S)-1-(4-{[5-(3-methyl-1,2-oxazol-5-yl)thiophen-2-yl]sulfonyl}piperazin-1-yl)propan-2-yl]-8-[1-methyl-3-(trifluoromethyl)-1H-pyrazol-4-yl]quinazolin-4-amine], for which the IC50 was below 10 nM.

Consider `Cc1cc(-c2ccc(S(=O)(=O)N3CCN(C[C@H](C)Nc4ncnc5c(-c6cnc(C(F)(F)F)s6)cccc45)CC3)s2)on1` [Example 15, N-[(2S)-1-(4-{[5-(3-methyl-1,2-oxazol-5-yl)thiophen-2-yl]sulfonyl}piperazin-1-yl)propan-2-yl]-8-[2-(trifluoromethyl)-1,3-thiazol-5-yl]quinazolin-4-amine], for which the IC50 is below 1000 nM.

Consider `Cc1cc(-c2ccc(S(=O)(=O)N3CCN(C[C@H](C)Nc4ncnc5c(-c6cccc(CN7CCCC7)c6)cccc45)CC3)s2)on1` [Example 16, N-[(2S)-1-(4-{[5-(3-methyl-1,2-oxazol-5-yl)thiophen-2-yl]sulfonyl}piperazin-1-yl)propan-2-yl]-8-{3-[(pyrrolidin-1-yl)methyl]phenyl}quinazolin-4-amine], for which the half-inhibitory concentration (IC50) was below 10 nM.

For `Cc1cc(-c2ccc(S(=O)(=O)N3CCN(C[C@H](C)Nc4ncnc5c(-c6cccc(CN(C)C)c6)cccc45)CC3)s2)on1` [Example 17, 8-{3-[(dimethylamino)methyl]phenyl}-N-[(2S)-1-(4-{[5-(3-methyl-1,2-oxazol-5-yl)thiophen-2-yl]sulfonyl}piperazin-1-yl)propan-2-yl]quinazolin-4-amine], the IC50 was below 10 nM.

On to `Cc1cc(-c2ccc(S(=O)(=O)N3CCN(C[C@H](C)Nc4ncnc5c(-c6cn(C)nc6C6CC6)cccc45)CC3)s2)on1` [Example 18, 8-(3-cyclopropyl-1-methyl-1H-pyrazol-4-yl)-N-[(2S)-1-(4-{[5-(3-methyl-1,2-oxazol-5-yl)thiophen-2-yl]sulfonyl}piperazin-1-yl)propan-2-yl]quinazolin-4-amine], for which the half-maximal inhibitory concentration (IC50) was below 10 nM.

For the molecule `Cc1cc(-c2ccc(S(=O)(=O)N3CCN(CCNc4ncnc5c(-c6cccnc6)cccc45)CC3)s2)on1` [Example 19, N-[2-(4-{[5-(3-methyl-1,2-oxazol-5-yl)thiophen-2-yl]sulfonyl}piperazin-1-yl)ethyl]-8-(pyridin-3-yl)quinazolin-4-amine], the half-inhibitory concentration (IC50) is below 1000 nM.

`Cc1cc(-c2ccc(S(=O)(=O)N3CCN(C[C@H](C)Nc4ncnc5c(N6CCCC6)cccc45)CC3)s2)on1` [Example 20, N-[(2S)-1-(4-{[5-(3-methyl-1,2-oxazol-5-yl)thiophen-2-yl]sulfonyl}piperazin-1-yl)propan-2-yl]-8-(pyrrolidin-1-yl)quinazolin-4-amine]: the IC50 was below 10 nM.

Take `COC(=O)Nc1nc(C)c(S(=O)(=O)N2CCN(C[C@H](C)Nc3ncnc4c(-c5cccc(CN(C)C)c5)cccc34)CC2)s1` [Example 21, methyl N-[5-({4-[(2S)-2-[(8-{3-[(dimethylamino)methyl]phenyl}quinazolin-4-yl)amino]propyl]piperazin-1-yl}sulfonyl)-4-methyl-1,3-thiazol-2-yl]carbamate]: the IC50 is below 10 nM.

As to `COC(=O)Nc1nc(C)c(S(=O)(=O)N2CCN(C[C@H](C)Nc3ncnc4c(-c5cccc(CN6CCCC6)c5)cccc34)CC2)s1` [Example 22, methyl N-[4-methyl-5-({4-[(2S)-2-[(8-{3-[(pyrrolidin-1-yl)methyl]phenyl}quinazolin-4-yl)amino]propyl]piperazin-1-yl}sulfonyl)-1,3-thiazol-2-yl]carbamate], the IC50 is below 10 nM.
